Test results: the NIST ThermoML archive (doi:10.1007/s10765-019-2568-3)
Numbers after ± are expanded uncertainties.

Tests used:
[1] = molar heat capacity at constant pressure; conditions: 100 kPa, DSC
[2] = for thermal conductivity / thermal diffusivity: 100 kPa; for thermal diffusivity: Laser flash apparatus

[Fe] [iron]
Conditions	molar heat capacity at constant pressure, [1] [J/K/mol]	thermal conductivity, [2] [W/m/K]	thermal diffusivity, [2] [m2/s]
293.15 K, Crystal 4	24.96 ± 1.6	82.5 ± 7	2.22e-05 ± 1.2e-06
373.15 K, Crystal 4	27.53 ± 1.5	73.4 ± 5.4	1.92e-05 ± 1.1e-06
473.15 K, Crystal 4	29.54 ± 1.7	65.5 ± 4.8	1.58e-05 ± 8.2e-07
573.15 K, Crystal 4	31.38 ± 2	58.2 ± 4.5	1.31e-05 ± 6.7e-07
673.15 K, Crystal 4	34.23 ± 2.1	52 ± 4.1	1.08e-05 ± 5.5e-07
773.15 K, Crystal 4	37.36 ± 2.2	46.7 ± 3.6	8.91e-06 ± 4.6e-07
873.15 K, Crystal 4	41.66 ± 2.5	41.1 ± 3	7.06e-06 ± 3.5e-07
973.15 K, Crystal 4	48.64 ± 3.4	36.2 ± 3.2	5.18e-06 ± 2.8e-07
1073.2 K, Crystal 3	52.72 ± 4	31.5 ± 2.8	4.49e-06 ± 2.4e-07
1173.2 K, Crystal 3	42.22 ± 3.3	30 ± 3	5.27e-06 ± 2.6e-07
1273.2 K, Crystal 2	33.62 ± 2.4	28.4 ± 2.8	6.33e-06 ± 3.5e-07

Conditions	mass density [kg/m3]
[2], 293 K, 101.33 kPa, Crystal 4	7849 ± 6
